Assay results as given in patent publication US20140058108A1 (SINOXA PHARMA UG, priority 2010, published 2014).

What was measured:
[1] = system: 5-HT2B receptors of pulmonary arteries in pigs; assay: 5-HT-induced, 5-HT2B-mediated relaxing of PGF2α-pre-contracted pulmonary arteries in pigs (functional receptor assay); type: cell-based; settings: under physiological conditions; not antagonized by maximum 5-HT concentrations
Description: (§1) In this case, the pA2 value reflects the negatively decade logarithm of the concentration of an antagonist, which makes it necessary to double the agonist concentration in order to restore the initial effect of the agonist without antagonists.
The vascular reaction in the preparations of pulmonary arteries in pigs, which are pre-contracted by means of PGF2α, were used as an assay for the specific interaction with 5-HT2B receptors (see FIG. 1A). […] Ketanserin is a standard-5HT2A antagonist, SB204741 is a standard-5-HT2B antagonist.

[2] = Stability of lisuride dissolved in water (HPL chromatogram); settings: room temperature, FIG. 3A
[3] = target: T1, 5-HT2A receptors of coronary arteries in pigs (Sus scrofa, UniProt P50129); assay: Inhibition of 5-HT2A-mediated, 5-HT-induced contraction of coronary arteries in pigs; type: cell-based; settings: n in own column
T1 construct: 5-HT2A-mediated contraction of the coronary arteries in pigs; from tissue; host or cells: isolated pig coronary artery
T1 sequence (P50129 whole entry): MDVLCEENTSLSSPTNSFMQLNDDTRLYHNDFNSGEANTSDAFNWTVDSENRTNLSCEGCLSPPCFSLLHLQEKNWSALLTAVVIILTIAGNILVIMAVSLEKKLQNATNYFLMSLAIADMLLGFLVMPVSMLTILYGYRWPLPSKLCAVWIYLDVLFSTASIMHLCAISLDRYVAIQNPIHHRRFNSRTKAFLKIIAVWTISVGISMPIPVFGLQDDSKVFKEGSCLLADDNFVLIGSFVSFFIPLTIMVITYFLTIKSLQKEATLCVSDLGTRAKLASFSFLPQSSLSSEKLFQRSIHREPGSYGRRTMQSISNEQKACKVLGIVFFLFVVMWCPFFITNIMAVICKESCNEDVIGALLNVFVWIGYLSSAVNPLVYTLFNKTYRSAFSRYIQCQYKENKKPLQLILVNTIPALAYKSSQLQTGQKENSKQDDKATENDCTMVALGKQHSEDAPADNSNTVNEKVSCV
Description: as §1

[4] = Antioxidative action / radical trap (binding of oxygen radicals)
Description: Because of the small amounts of substances contained in the samples and the short life of the reaction products, it was not possible to isolate them for structural clarification.

[5] = system: Human smooth muscle cells; assay: 5-HT-stimulated cell growth, 3H-thymidine uptake; type: cell-based; settings: 10 μmol/l test substance, 5-HT 10-8 mol/l, 24 hours; FIG. 2
Description: To determine the cell growth, 3H-thymidine (Amersham) was then added to the cell cultures, and the latter were incubated for 24 hours. After the adhesion of the cells, the culture medium was replaced by a standard medium with 0.2% fetal calf serum to stop growth and incubated again for 48 hours.
In order to test antiproliferative actions of the described substances, the cell cultures were then pre-incubated first at a concentration of 10 μmol/l of the test substances. […] To measure the growth of cells, 3H-thymidine (Amersham) was then added to the cultures, and the latter was incubated for 24 hours. Then, 2 incubations were carried out in iced common salt solution with a phosphate buffer, and then a 30-minute incubation was carried out in iced 10% trichloroacetic acid at 4° C. The cells were then incubated in 0.1 molar NaOH solution (0.5 ml/incubation vessel). After neutralization with acetic acid, the 3H-thymidine uptake was measured with liquid scintillation (as 3× determination).

[6] = system: monocrotaline-induced pulmonary high pressure in rats; assay: Monocrotaline-induced pulmonary high pressure in rats; type: in vivo, male Sprague-Dawley rats; settings: MCT 60 mg/kg s.c.; treatment bid via stomach tube days 15-28; measured day 28; lisuride 0.25 mg/kg, terguride 2.5 mg/kg; average ± SEM, N = 6
Description: Monocrotaline (MCT) is a toxin from plants of the Crotalaria species, which damages the endothelial cells of the pulmonary arteries after a single injection in rats, with the following hypertrophy of the smooth vascular musculature and persistent severe pulmonary high pressure. The MCT-induced pulmonary hypertension in rats is a well-established and validated model of human pulmonary hypertension, and all now-approved therapeutic agents have shown an action in this model, at least when they were used before the toxically-induced tissue remodeling.
MCT (60 mg/kg) was administered subcutaneously as a single injection in male Sprague-Dawley rats, and an identical volume of isotonic common salt solution was injected into the control animals. […]
On day 28 of the experiment, two hours after the last administration of substance, the animals were narcotized with use of pentobarbital. […] The mean arterial system pressure and the systolic pressure were measured in the right heart ventricle. […]
The s.c. injection of MCT, as described above, results in severe damage of the pulmonary vascular endothelium as well as excessive production of connective tissue and development of a pulmonary hypertension. Accumulation of collagen, measured as hydroxyproline content of the pulmonary tissue and increase of the right-ventricular systolic pressure reflect the described structural and functional changes.

[7] = system: 5-HT-induced effects in rats; settings: cited from earlier work

For `CCN(CC)C(=O)N[C@H]1C=C2c3cccc4[nH]cc(c34)C[C@H]2N(C)C1` [Lisuride, 3-(9,10-didehydro-6-methylergoline-8alpha-yl)-1,1-diethylurea], the “type of antagonism of the 5-HT2B receptor” value [1] was “irreversible antagonist” and the “stability dissolved in water” value [2] was “quickly broken down”.

In the case of `CCNC(=O)NC1C=C2c3cccc4[nH]cc(c34)CC2N(C)C1` (stereo not drawn) [N″-Monodesethyllisuride], the “5-HT2A pA2” value [3] is reported as 8.29 ± 0.03.

With `CCN(CC)C(=O)N[C@H]1C[C@@H]2c3cccc4[nH]cc(c34)C[C@H]2N(C)C1` [Terguride, trans-dihydrolisuride] the “free oxygen radicals taken up by an individual molecule” value [4] was “up to 4”, the “cell proliferation (3H-thymidine uptake)” value [5] was “Reduction of cell proliferation” and the “Systolic Right-Ventricular Pressure (RVPsys)” value [6] was 39 ± 3 mmHG. For the same compound, the “5-HT-induced weight increase of the heart and liver” value ([7]; rats [Hauso 2007]) was “prevented”, the “behavior abnormalities and fibrotic skin changes at the injection sites of 5-HT” value ([7]; rats [Hauso 2007]) was “suppressed” and the “development of pulmonary valve failure” value ([7]; rats, daily 5-HT over 4 months [Hauso 2007]) was “not detectable”.
